Measurements published in article PMC2907470 (Nature chemical biology, 2010).

Experiments:
[1] = biological target: T1, Scn-Ngal (Homo sapiens, UniProt P80188); assay type: binding; conditions: for iron retention by Scn-Ngal, dose-response: urinary compounds 0.5–100 µM, Scn-Ngal 10 µM
[2] = biological target: T1, Scn-Ngal; experiment: Release of ligands from Scn-Ngal on acidification; assay type: binding; conditions: acidification from neutral pH; n = 3
[3] = tested on: embryonic kidney FoxD1+ stromal cells; experiment: Capture of 55Fe from Scn-Ngal:catechol:55Fe by kidney stromal cells; assay type: cell-based, mouse; conditions: 37°C, bafilomycin 0.15 nmole, 3 hrs
[4] = biological target: T1, Scn-Ngal; experiment: Fluorescence quenching analysis of Scn-Ngal with free catechol ligands; assay type: binding; conditions: with iron III versus catechol itself
[5] = tested on: C57BL/6 mice; assay type: in vivo, mouse; conditions: for cleared in the urine: by 180 min after introduction; for organ distribution: i.p., 20 and 180 min
[6] = Stability of catechol in solution monitored by NMR; conditions: monitored for 20 hrs by NMR, D2O
[7] = biological target: Scn-Ngal K125A, K134A mutant (Homo sapiens, UniProt P80188, K145A/K154A); experiment: 55Fe retention by Scn-Ngal K125A, K134A mutant; assay type: binding; conditions: K125 and K134 mutated to alanine, versus wild type
Sequence of Scn-Ngal K125A, K134A mutant (P80188 21-198 K145A/K154A): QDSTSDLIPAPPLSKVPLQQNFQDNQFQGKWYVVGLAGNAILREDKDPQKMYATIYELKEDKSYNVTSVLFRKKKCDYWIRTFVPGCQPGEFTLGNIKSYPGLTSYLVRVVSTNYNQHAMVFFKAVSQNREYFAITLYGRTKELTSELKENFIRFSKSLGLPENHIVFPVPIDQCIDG

[8] = tested on: kidney proximal tubule LLCPK1 cells; experiment: Capture of 55Fe from Scn-Ngal:catechol:55Fe by LLCPK cells; assay type: cell-based; conditions: 37°C
[9] = tested on: LLCPK cells; experiment: Iron responsive 5'IRE-YFP reporter in LLCPK cells; assay type: cell-based; conditions: 100 or 500 µg/ml, 16 hrs, compared to DMEM alone
[10] = Generation of hydroxyl radicals; assay type: biochemical; conditions: 10 µM FeCl3, 30 µM catechols, 2 mM H2O2; Scn-Ngal 10 µM where added

For Cc1cccc(O)c1O [3-methylcatechol, 3-methylbenzene-1,2-diol], which “iron retention by Scn-Ngal, dose-response” value (shortened to “iron retention by Scn-Ngal”) [1] is on record?
Its value is “saturable iron retention”.

And the “pH at which Scn-Ngal:ligand:FeIII complex dissociated” value [2]?
The value was 6.0.

For bafilomycin [reference compound], which 55Fe uptake [3] is on record?
Its 55Fe uptake is “inhibited”.

Which “iron retention by Scn-Ngal” value [1] does the source give for Oc1cccc(O)c1O [Pyrogallol, benzene-1,2,3-triol] here?
Its value is “saturable iron retention”.

And the “pH at which Scn-Ngal:ligand:FeIII complex dissociated” value [2]?
The value was less than 4.

With Cc1ccc(O)c(O)c1 [4-methylcatechol, 4-methylbenzene-1,2-diol] as the molecule, how does the “iron retention by Scn-Ngal” value [1] read?
The value was “saturable iron retention”.

For Oc1ccccc1O [Catechol, benzene-1,2-diol], which “increase in binding affinity in the presence of iron III” value [4] is on record?
The value was 100 fold.

And the “iron retention by Scn-Ngal” value [1]?
Its value is “saturable iron retention”.

And the “pH at which Scn-Ngal:ligand:FeIII complex dissociated” value [2]?
The value was 6.0.

What about the “cleared in the urine” value [5] of the same molecule?
The value was 80.56±8.8%.

What about the stability in solution [6] of the same molecule?
The stability in solution was “stable in solution”.

For O=C(N[C@H]1COC(=O)[C@@H](NC(=O)c2cccc([O-])c2[O-])COC(=O)[C@@H](NC(=O)c2cccc([O-])c2[O-])COC1=O)c1cccc([O-])c1[O-].[Fe+3] [Ent:Fe], which “capture of siderophore:Fe by mutant Scn-Ngal” value [7] is on record?
Its value is “ineffective”.

For “transferrin:iron: iron-loaded transferrin, comparator [reference compound]”, which organ distribution [5] is on record?
Its organ distribution is “accumulated in the bone marrow”.

For O=C(N[C@H]1COC(=O)[C@@H](NC(=O)c2cccc(O)c2O)COC(=O)[C@@H](NC(=O)c2cccc(O)c2O)COC1=O)c1cccc(O)c1O [Ent, reference compound], which “association of urinary catechols with Scn-Ngal in presence of competitor” value ([1]; 50 fold molar excess of Ent presaturated with non-radioactive iron) is on record?
Its value is “blocked”.

B1: Scn-Ngal:catechol:Fe: complex of the lipocalin Scn-Ngal with catechol and iron (protein, UniProt P80188 21-198, looked up)
Neutrophil …: QDSTSDLIPAPPLSKVPLQQNFQDNQFQGKWYVVGLAGNAILREDKDPQKMYATIYELKEDKSYNVTSVLFRKKKCDYWIRTFVPGCQPGEFTLGNIKSYPGLTSYLVRVVSTNYNQHAMVFFKKVSQNREYFKITLYGRTKELTSELKENFIRFSKSLGLPENHIVFPVPIDQCIDG
modifications: complex with catechol and iron
Which “cleared in the urine” value [5] does the source give for B1 here?
Its value is 56.4±6.7%.

What about the organ distribution [5] of the same molecule?
Its organ distribution is “targeted the kidney”.

And the 55Fe uptake [3]?
Its 55Fe uptake is “Uptake occurred”.

What about the 55Fe uptake [8] of the same molecule?
Its 55Fe uptake is “Uptake occurred”.

And the “iron dependent YFP probe” value [9]?
The value was “activated”.

B2: Scn-Ngal: Neutrophil Gelatinase Associated Lipocalin, recombinant, expressed in BL-21 bacteria (protein, UniProt P80188 21-198, looked up)
Neutrophil …: B1 Neutrophil …
Which “conversion of HPF to fluorescein (hydroxyl radical formation)” value [10] does the source give for B2 here?
Its value is “blocked the reaction”.
